Test results from US6620837B1, “Antithrombotic agents” (Eli Lilly and Company, priority 1999, dated 2003).
Where a name gives a salt, the structure may show the parent alone.

Columns and labels:
[1] = Volume of distribution (VD) after oral dosing, pharmacokinetic model; type: in vivo, dog; settings: VD=Clearance/K; Clearance=Dose/AUC following oral dosing; compounds of the invention
Description: Many of the antithrombotic compounds disclosed in the prior art are lipophilic and, therefore, undergo high volumes of distribution from the plasma component and into the tissues. Since thrombin resides in the plasma, this tissue distribution is not preferred. […] Data in Table 1 below confirms that the compounds of the present invention have lower volumes of distribution and, therefore, better pharmacokinetic properties than their corresponding compounds of formula I in which R^d is hydrogen.
The Volume of Distribution (VD) was calculated according to the standard equation:
where Clearance=Dose (ug)/AUC (ug/ml) where AUC is the amount of drug present in plasma following oral dosing and is measured as the area under a curve of drug concentration versus time. K(h^−1) is the elimination rate constant.
Test compound is formulated immediately prior to dosing by dissolving in sterile 0.9 percent saline to a 5 mg/mL preparation. Dogs are given a single 2 mg/kg dose of test compound by oral gavage. Blood samples (4.5 mL) are taken from the cephalic vein at 0.25, 0.5, 0.75, 1, 2, 3, 4 and 6 hours after dosing. Samples are collected in citrated Vacutainer tubes and kept on ice prior to reduction to plasma by centrifugation. Plasma samples are analyzed by HPLC MS. Plasma concentration of test compound is recorded and used to calculate the pharmacokinetic parameters: elimination rate constant, Ke; total clearance, Clt; volume of distribution, VD; time of maximum plasma test compound concentration, Tmax; maximum concentration of test compound of Tmax, Cmax; plasma half-life, t0.5; and area under the curve, A.U.C.; fraction of test compound absorbed, F.

Compound | VD [1] [L/kg] | melting point
O=C([O-])CCCOc1ccc(-c2sc3ccccc3c2Cc2ccc(OCCN3CCCC3)cc2)cc1C(=O)[O-].[Na+].[Na+] [Example 2, 2-(3-Carboxypropoxy)-5-[3-[4-[2-(1-pyrrolidinyl)ethoxy]benzyl]benzo[b]thiophen-2-yl]benzoic Acid Disodium Salt] | 0.46 | > 250 °C
NC(=O)CCCOc1cc(-c2sc3ccccc3c2Cc2ccc(OCCN3CCCC3=O)cc2)ccc1OCCN1CCCC1 [Example 8, 2-[3-(4-Amino-4-oxobutoxy)-4-[2-(1-pyrrolidinyl)ethoxy]phenyl]-3-[4-[2-(2-oxopyrrolidin-1-yl)ethoxy]-benzyl]benzo[b]thiophene Oxalate] | 13.53 | –
O=C([O-])CCCOc1cc(-c2sc3ccccc3c2C(=O)c2ccc(OCCN3CCCC3=O)cc2)ccc1OCCN1CCCC1.[Li+] [Example 11] | 5.13 | –

Other lines, results leading:

VD [1] [L/kg] | melting point | Compound
1.27 | 253 to 255 °C (dec.) | O=C([O-])c1cc(-c2sc3ccccc3c2Cc2ccc(OCCN3CCCC3)cc2)ccc1OCCN1CCCC1.[Na+] [Example 1, 2-[2-(1-Pyrrolidinyl)ethoxy]-5-[3-[4-[2-(1-pyrrolidinyl)ethoxy]benzyl]benzo[b]thiophen-2-yl]benzoic Acid Sodium Salt]
3.36 | – | COC(=O)CCCOc1ccc(-c2sc3ccccc3c2Cc2ccc(OCCN3CCCC3)cc2)cc1C(N)=O [Example 4, 2-(3-Carbomethoxypropoxy)-5-[3-[4-[2-(1-pyrrolidinyl)ethoxy]benzyl]benzo[b]thiophen-2-yl]benzamide Oxalate Salt]
